Measured values reported in patent publication US5760036A, “Aminediol protease inhibitors” (E. R. Squibb & Sons, Inc., priority 1995, dated 1998).
Like-named read-outs stand apart in the source and are kept apart here.

Target: T1, HIV protease (Human immunodeficiency virus type 1 group M subtype B, UniProt P04585)
T1 construct: and purified protease
Experiment: HIV Protease Assay
Assay type: biochemical
Conditions: for HIV Protease % Inhibition at 10 μM: 10 μM inhibitor
Experimental: An HIV protease standard assay was performed in a 60 μl reaction medium containing 50 mM sodium acetate, pH 5.5, 100 μg/ml bovine serum albumen,450 μM substrate (H2 N-Val-Ser-Gln-Asn-(β-naphthyl-alanine)-Pro-Val-Ile-OH), and purified protease. The reaction medium was incubated for 30 minutes at 37° C., quenched by the addition of 140 μl 5% H3 PO4, then analyzed by reverse phase HPLC using UV220 detection. In a typical control assay, 7% of the substrate was hydrolyzed. Aminediol inhibitors of the present invention, listed in the following Table 1, were then employed in the assay, for which purpose they were prepared as a […] solution in DMSO, then diluted to 30 μM with 50 mM sodium acetate/bovine serum albumen. This working stock was then diluted three-fold into the protease reaction medium, for a final concentration of 10 μM inhibitor and 4% DMSO.

[1] = pH 5.5, 10 μM inhibitor, 4% DMSO, 450 μM substrate, pH 5.5, 30 minutes at 37° C., RP-HPLC, read-out: HIV Protease % Inhibition at 10 μM
[2] = 4% DMSO, 450 μM substrate, pH 5.5, 30 minutes at 37° C., RP-HPLC

## CC(C)(C)OC(=O)N[C@@H](Cc1ccccc1)[C@H](O)CNC[C@@H](O)[C@H](Cc1ccccc1)NC(=O)OC(C)(C)CN [Compound 216, [1S-(1R*,2S*)]-[Iminobis[2-hydroxy-1-(phenylmethyl)-3,1-propanediyl]]biscarbamic acid. 2-amino-1,1-dimethylethyl-1,1-dimethylethyl ester]
pH 5.5, read-out: HIV Protease % Inhibition at 10 μM
  inhibition at 10 µM: 49%

## CC(C)(C)OC(=O)N[C@@H](Cc1ccccc1)[C@H](O)CNC[C@@H](O)[C@H](Cc1ccccc1)NC(=O)OC(CO)c1cccnc1 (stereo partly drawn) [Compound 277, [R-(R*,S*)]-[Iminobis[2-hydroxy-1-(phenylmethyl)-3,1-propanediyl)]biscarbamic acid, 1,1-dimethylethyl-2-hydroxy-1-(3-pyridinyl)ethyl ester]
[1]
  inhibition at 10 µM: 67%

## CC(C)(C)OC(=O)N[C@@H](Cc1ccccc1)[C@H](O)CNC[C@@H](O)[C@H](Cc1ccccc1)NC(=O)OCc1ncc[nH]1 [Compound 268, [R-(R*,S*)]-[Iminobis[2-hydroxy-1-(phenylmethyl)-3,1-propanediyl)]biscarbamic acid, (1H-imidazol-2-yl)-methyl 1,1-dimethylethyl ester]
[1]
  inhibition at 10 µM: 94%

## CC(C)(C)OC(=O)N[C@@H](Cc1ccccc1)[C@H](O)CNC[C@@H](O)[C@H](Cc1ccccc1)NC(=O)C(C)(O)C(F)(F)F (single isomer, unassigned; isomer b) [Compound 294, [1S-[1R*,2S*(2S*,3R*)]]-[2-Hydroxy-3-[2-hydroxy-1-oxo-2-(trifluoromethyl)propyl]amino]-4-phenylbutyl]amino]-1-(phenylmethyl)propyl]carbamic acid, 1,1-dimethylethylester (isomer B)]
[2]
  HIV Protease % Inhibition at 10 μM: 89%

## CC(C)(C)OC(=O)N[C@@H](Cc1ccccc1)[C@H](O)CNC[C@@H](O)[C@H](Cc1ccccc1)NC(=O)O[C@@H]1COC[C@H]1O [Compound 317, [1S-(1R*,2S*), (3R-trans)l-[Iminobis[2-hydroxy-1-(phenylmethyl)-3,1-propanediyl]]bis[carbamic acid], 4-hydroxy-3-tetrahydrofuranyl 1,1-dimethylethyl ester]
[1]
  inhibition at 10 µM: 85%

## CC(C)(C)OC(=O)NC[C@@H](O)[C@@H](Cc1ccccc1)NC[C@@H](O)[C@H](Cc1ccccc1)NC(=O)OC(C)(C)C [Compound 190, [2R-[2R*,3R*(2R*,3S*)]]-[3-[[3-[[(1,1-Dimethylethoxy)carbonyl]amino]-2-hydroxy-4-phenyl-butyl]amino]-2-hydroxy-4-phenylbutyl]carbamic acid, 1,1-dimethylethyl ester]
[1]
  inhibition at 10 µM: < 16%

## CC(C)(C)OC(=O)N[C@@H](Cc1ccccc1)[C@H](O)CNC[C@@H](O)[C@H](Cc1ccccc1)NC(=O)NCc1ccccc1 (relative stereo) [Compound 57, [1R*,2S*(2S*,3R*)]-[2-Hydroxy-3[[2-hydroxy-4-phenyl-3-[[[(phenylmethyl)amino]-carbonyl]amino]butyl]amino]-1-(phenylmethyl)-propyl]carbamic acid, 1,1-dimethylethyl ester]
[1]
  inhibition at 10 µM: 46%

## CC(C)(C)OC(=O)N[C@@H](Cc1ccccc1)C(=O)CNC[C@@H](O)[C@H](Cc1ccccc1)NC(=O)OC(C)(C)C [Compound 193, [1S-[1R*,2S*(3R*)]]-[3-[[3-[[(1,1-Dimethylethoxy)carbonyl]amino]-2-oxo-4-phenylbutyl]amino]-2-hydroxy-1-(phenylmethyl)propyl]carbamic acid, 1,1-dimethylethyl ester]
[1]
  inhibition at 10 µM: 66%

## CC(C)(C)OC(=O)N[C@@H](Cc1ccccc1)[C@H](O)CNC[C@@H](O)[C@H](Cc1ccccc1)NC(=O)C1(O)CCCCC1(C)C (single isomer, unassigned; isomer a) [Compound 361, [1S-[1R*,2S*(2S*,3R*)]]-[3-[[3-[[2 , 2-Dimethyl-1-hydroxycyclohexyl)carbonyl]amino]-2-hydroxy-4-phenylbutyl]amino]-2-hydroxy-1-(phenylmethyl) propyl]carbamic acid, 1,1-dimethylethyl ester, isomer A]
[1]
  inhibition at 10 µM: 97%

## COC(=O)N[C@H](C(=O)N[C@@H](Cc1ccccc1)[C@H](O)CNC[C@@H](O)[C@H](Cc1ccccc1)NC(=O)[C@](C)(O)C(C)(C)C)C(C)(C)C (relative stereo) [Compound 383, [1R*,2S*[2S*, 3R*(S*)]]-N-[2-Hydroxy-3-[[2-hydroxy-3-[(2-hydroxy-2,3,3-trimethyl-1-oxobutyl)amino]-4-phenylbutyl]amino]-1-(phenylmethyl)propyl]-N^2-(2-methoxycarbonyl)-3-methyl-L-valinamide]
[1]
  inhibition at 10 µM: 99%

## CC(C)(C)OC(=O)NCC(O)[C@H](Cc1ccccc1)NC[C@@H](O)[C@H](Cc1ccccc1)NC(=O)OC(C)(C)C (mixture of isomers) [Compound 188, [3S-[3R*(2S*,3R*)]]-[3-[[3-[[(1,1-Dimethylethoxy)carbonyl]amino]-2-hydroxy-4-phenyl-butyl]amino]-2-hydroxy-4-phenylbutyl]carbamic acid, 1,1-dimethylethyl ester, 2:1 diastereomer mixture]
[1]
  inhibition at 10 µM: 21%

## CNC(=O)C(O)(C(=O)N[C@@H](Cc1ccccc1)[C@H](O)CNC[C@@H](O)[C@H](Cc1ccccc1)NC(=O)OC(C)(C)C)C(C)(C)C (single isomer, unassigned; isomer b) [Compound 385, [1S-[1R*,2S*(2S*, 3R*)]]-[3-[[3-[[2-Hydroxy-3,3-dimethyl-2-[(methylamino)carbonyl]-1-oxobutyl]amino]-2-hydroxy-4-phenylbutyl]amino]-2-hydroxy-1-(phenylmethyl)propyl]carbamic acid, 1,1-dimethylethyl ester, isomer B]
[2]
  HIV Protease % Inhibition at 10 μM: 99%

## CC(C)C[C@H](NC(=O)OC(C)(C)C)C(O)CN(Cc1ccccc1)CC(O)[C@H](CC(C)C)NC(=O)OC(C)(C)C (stereo partly drawn) [Compound 196, (3S,3S')-[[(Phenylmethyl)nitrilo]-bis(2-hydroxy-5-methyl-3,1-hexandiyl)]-biscarbamic acid, bis(1,1-dimethylethyl)ester]
[1]
  inhibition at 10 µM: 6%

## CC(C)(C)OC(=O)N[C@@H](Cc1ccccc1)[C@H](O)CNC[C@@H](O)[C@H](Cc1ccccc1)NC(=O)OCc1nc2ccccc2[nH]1 [Compound 289, [R-(R*,S*)]-[Iminobis[2-hydroxy-1-(phenylmethyl)-3,1-propanediyl)]biscarbamic acid, (1H-benzimidazol-2-yl)methyl 1,1-dimethylethyl ester]
[1]
  inhibition at 10 µM: 53%

## CC(C)(C)OC(=O)N[C@@H](Cc1ccccc1)[C@H](O)CNC[C@@H](O)[C@H](Cc1ccccc1)NC(=O)C(O)C(F)(F)F (single isomer, unassigned; isomer b) [Compound 272, [1S-[1R*,2S*(2S*,3R*)]]-[2-Hydroxy-1-(phenylmethyl)-3-[[2-hydroxy-4-phenyl-3-[(3.3,3-trifluoro-2-hydroxy-1-oxopropyl)amino]butyl]amino]propyl]carbamic acid,1,1-dimethylethyl ester (isomer B)]
[2]
  HIV Protease % Inhibition at 10 μM: 87%

## CC(C)(C)OC(=O)N[C@@H](Cc1ccccc1)[C@H](O)CN[C@@H](Cc1ccccc1)C(O)CNC(=O)OCc1ccccc1 (stereo partly drawn) [Compound 186, [3S-[3R*,2(R*,S*) [2S*,3R*)]-3-[[3-(1,1-Dimethylethoxy)carbonyl]amino]-2-hydroxy-4-phenylbutyl]amino]-2-hydroxy-4-phenylbuty 1]carbamic acid, phenylmethyl ester]
[1]
  inhibition at 10 µM: 0%

## CO[C@H](CNC[C@@H](O)[C@H](Cc1ccccc1)NC(=O)OC(C)(C)C)[C@H](Cc1ccccc1)NC(=O)OC(C)(C)C [Compound 142, [1S-[1R*,2S*(2S*,3R*)]]-[3-[[3-[[(1,1-Dimethylethoxy)carbonyl]amino]-2-hydroxy-4-phenylbutyl]amino]-2-methoxy-1-(phenylmethyl)propyl]carbamic acid 1,1-dimethylethyl ester]
[1]
  inhibition at 10 µM: 30%

## CC(C)(C)OC(=O)N[C@@H](Cc1ccccc1)[C@H](O)CN[C@H](Cc1ccccc1)[C@H](O)CNC(=O)OCc1ccccc1 [Compound 189, [2R-[2R*,3R*(2R*,3S*)]]-[3-[[3-[[(1,1-Dimethylethoxy)carbonyl]amino]-2-hydroxy-4-phenylbutyl]amino]-2-hydroxy-4-phenylbutyl]-carbamic acid, phenylmethyl ester]
[1]
  inhibition at 10 µM: 23%

## CC(C)(C)OC(=O)N[C@@H](Cc1ccccc1)[C@H](O)CNC[C@@H](O)[C@H](Cc1ccccc1)NC(=O)OC(C)(CO)CO [Compound 251, [R-(R*,S*)]-[Iminobis[2-hydroxy-1-(phenylmethyl)-3,1-propanediyl)]biscarbamic acid, 1,1-bis(hydroxymethyl)ethyl 1,1-dimethylethyl ester]
[1]
  inhibition at 10 µM: 98%

## CON=C(C(=O)N[C@@H](Cc1ccccc1)[C@H](O)CNC[C@@H](O)[C@H](Cc1ccccc1)NC(=O)OC(C)(C)C)C(C)(C)C [Compound 296, [1S-[1R*,2S*(2S*,3R*)]]-[2-Hydroxy-3-[[2-hydroxy-3-[[2-(methoxyimino)-3,3-dimethyl-1-oxobutyl]amino]-4-phenylbutyl]amino]-1-(phenylmethyl)propyl]carbamic acid, 1,1-dimethylethyl ester]
[1]
  inhibition at 10 µM: 37%

## CC(C)(C)OC(=O)N[C@@H](Cc1ccccc1)[C@H](O)CN[C@H](Cc1ccccc1)[C@@H](O)CNC(=O)OCc1ccccc1 [Compound 185, [2S-[2R*,3S*(2S*,3R*)]]-[3-[[3-[[(1,1-Dimethylethoxy)carbonyl]amino-2-hydroxy-4-phenylbutyl]amino-2-hydroxy-4-phenylbutyl]carbamnic acid, phenylmethyl ester]
[1]
  inhibition at 10 µM: 5%
